Measured values from article PMC6150172, “Synthesis of Oxadiazole-Thiadiazole Hybrids and Their Anticandidal Activity” (Molecules : A Journal of Synthetic Chemistry and Natural …, 2017).
Values after ≈ are worked out from the molar mass of the structure shown.

Legend:
C. albicans (ATCC 24433) = test: Antifungal broth microdilution assay (EUCAST EDef 7.1), C. albicans; assay type: cell-based; conditions: Candida albicans, ATCC24433, read-out: Minimum inhibitory concentration (MIC50)
Procedure: (§1) The anticandidal effect of compounds 6a–6s were screened in accord with the EUCAST definitive (EDef 7.1) method. Ketoconazole was employed as a reference drug. The in vitro growth inhibitory activity of the compounds were tested against C. albicans (ATCC 24433), C. glabrata (ATCC 90030), C. krusei (ATCC 6258) and C. parapsilosis (ATCC 22019). The results were obtained as MIC values and MIC readings were accomplished twice for each chemical agent. After incubating overnight at 37 °C, the fungal strains were sustained in Roswell Park Memorial Institute (RPMI) medium.
(§2) Adjustment of the inoculum density to a 0.5 McFarland turbidity standard was carried out by using a spectrophotometer. The resulting inoculum suspension contained 0.5 × 10^5–2.5 × 10^5 cfu/mL for fungi. The two-fold serial dilutions technique were applied and the test was carried out in Mueller–Hinton broth and RPMI at pH7 and the test was performed for medium at pH7. The last well on the microplates containing only inoculated broth and the last well with no growth of microorganism represent controls and the MIC50 in μg/mL, respectively. DMSO was used as solvent. Further dilutions of the compounds and standard drugs in the RPMI medium were prepared in the required quantities at contcentrations of 800, 400, 200, 100, 50, 25, 12.5, 6.25, 3.125, 1.5625 and 0.78 µg/mL. After a 24 h incubation of the completed plates, resazurin (20 µg/mL) was added into each well in order to observe the fungal growth. […] Each experiment in antifungal assay was performed twice.

C. glabrata (ATCC 90030) = test: Antifungal broth microdilution assay (EUCAST EDef 7.1), C. glabrata; assay type: cell-based; conditions: Nakaseomyces glabratus, ATCC90030, read-out: Minimum inhibitory concentration (MIC50)
Procedure: as §1, §2

C. krusei (ATCC 6258) = test: Antifungal broth microdilution assay (EUCAST EDef 7.1), C. krusei; assay type: cell-based; conditions: Pichia kudriavzevii, ATCC6258, read-out: Minimum inhibitory concentration (MIC50)
Procedure: as §1, §2

[1] = tested on: C. parapsilosis (ATCC 22019); test: Antifungal broth microdilution assay (EUCAST EDef 7.1), C. parapsilosis; assay type: cell-based; conditions: Lodderomyces parapsilosis, ATCC22019; C. parapsilopsis; read-out: Minimum inhibitory concentration (MIC50)
Procedure: as §1, §2

[2] = tested on: ergosterol biosynthesis in C. krusei; test: Ergosterol level quantification by LC-MS-MS in C. krusei; assay type: cell-based; conditions: Pichia kudriavzevii, mean ± SD
Procedure: The ergosterol level was determined using the method described by Breivik and Owades with adjustments according to [2]. C. krusei was inoculated with Sabouraud dextrose broth (Difco) supplemented with compounds 6e, 6k, 6r and the positive control, ketoconazole. The cultures were incubated, and the stationary-phase cells were harvested. After the addition of 25% alcoholic potassium hydroxide solution, cell suspensions were separated and incubated. Sterols were extracted by sterile distilled water and chloroform, and then the extract was injected into the LC-MS-MS system (Shimadzu LCMS 8040, Kyoto, Japan). The ergosterol quantity in the negative control samples was considered as 100%. All concentrations were analysed in quadruplicate, and the results were presented as mean ± standard deviation (SD).

MTT cytotoxicity test = assay type: cell-based; conditions: mouse, NIH/3T3 mouse embryonic fibroblast cells, NIH/3T3 cell line, read-out: IC50 (cytotoxic activity)
Procedure: The MTT assay was carried out to determine the cytotoxicity of the synthesized compounds as previously reported in [21]. NIH/3T3 mouse embryonic fibroblast cells (ATCC® CRL-1658™, London, UK) were incubated according to the supplier’s references and seeded at 1 × 10^4 cells into each well of 96-well plates. After this process, cells were treated with the compounds at concentrations ranging from 800 µg/mL to 0.78 µg/mL. By means of the following formula, percent inhibition was evaluated for each concentration.

four Candida species = test: Antifungal broth microdilution assay, four Candida species taken together; assay type: cell-based; conditions: range over four Candida strains
Procedure: as §1, §2

| Structure (SMILES) | MIC50 (C. albicans (ATCC 24433)) | MIC50 (C. glabrata (ATCC 90030)) | MIC50 (C. krusei (ATCC 6258)) | MIC50 [1] | inhibition at 0.78 µg/mL [2] | inhibition at 1.56 µg/mL [2] | inhibition at 3.12 µg/mL [2] | IC50 (MTT cytotoxicity test) | minimum inhibitory concentration (MIC), range over all tested fungi (four Candida species) | melting point |
| --- | --- | --- | --- | --- | --- | --- | --- | --- | --- | --- |
| O=C(CSc1nnc(CCSc2nnc(NC3CCCCC3)s2)o1)c1ccc([N+](=O)[O-])cc1 [Compound 6e, 2-[[5-[2-[[5-(Cyclohexylamino)-1,3,4-thiadiazol-2-yl]thio]ethyl]-1,3,4-oxadiazol-2-yl]thio]-1-(4-nitrophenyl)ethan-1-one] | 1.56 µg/mL (≈ 3.08 µM) | 1.56 µg/mL (≈ 3.08 µM) | 0.78 µg/mL (≈ 1.54 µM) | 0.78 µg/mL (≈ 1.54 µM) | 76.5 ± 3.67% | 82.9 ± 4.72% | 88.6 ± 4.52% | > 500 µg/mL | 0.78 to 3.12 µg/mL | 144 °C |
| O=C(CSc1nnc(CCSc2nnc(NC3CCCCC3)s2)o1)Nc1nc2ccc([N+](=O)[O-])cc2s1 [Compound 6r, 2-[[5-[2-[[5-(Cyclohexylamino)-1,3,4-thiadiazol-2-yl]thio]ethyl]-1,3,4-oxadiazol-2-yl]thio]-N-(6-nitrobenzothiazol-2-yl)acetamide] | 3.12 µg/mL (≈ 5.39 µM) | 3.12 µg/mL (≈ 5.39 µM) | 1.56 µg/mL (≈ 2.7 µM) | 1.56 µg/mL (≈ 2.7 µM) | 61.4 ± 1.88% | 70.6 ± 4.23% | 80.2 ± 3.7% | 406 ± 9.36 µg/mL (≈ 702 µM) | 0.78 to 3.12 µg/mL |  |
| O=C(CSc1nnc(CCSc2nnc(NC3CCCCC3)s2)o1)Nc1ccc([N+](=O)[O-])cc1 [Compound 6k, 2-[[5-[2-[[5-(Cyclohexylamino)-1,3,4-thiadiazol-2-yl]thio]ethyl]-1,3,4-oxadiazol-2-yl]thio]-N-(4-nitrophenyl)acetamide] | 1.56 µg/mL (≈ 2.99 µM) | 1.56 µg/mL (≈ 2.99 µM) | 1.56 µg/mL (≈ 2.99 µM) | 1.56 µg/mL (≈ 2.99 µM) | 58.7 ± 2.41% | 74.7 ± 3.26% | 81.3 ± 4.19% | > 500 µg/mL | 0.78 to 3.12 µg/mL | 149 °C |
